Among the test systems are A549; SNB-75; MDA-N; MOLT-4; SN12C; OVCAR-5; HCC 2998; OVCAR-4; BT-549; TK-10; Malme-3M; SF-539; NCI/ADR-RES; NCI-H522; MDA-MB-435; NCI-H23; HL-60; NCI-H460; M14; T47D.
Holding throughout (experiment): growth of human tumour cells (NCI), 48 h

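Compound exposure: 48 hours, 5 concentrations, 96-well plates. GI50 = concentration required for 50% inhibition of growth.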 The source made the active and inactive calls. No stated cut-off is given here; in the data, active = GI50 up to about 1.1 µM and inactive = higher.

For `CCn1c(=O)c2c(=O)[nH][nH]c2c2ccccc21`, the GI50 in the experiment on A549, in the experiment on SNB-75, in the experiment on MDA-N, with MOLT-4, in the experiment on SN12C and with OVCAR-5 was > 100 µM (inactive) in each case. Further, the GI50 in the experiment with HCC 2998, in the experiment with OVCAR-4, with BT-549, in the experiment with TK-10, with Malme-3M and with SF-539 was > 100 µM (inactive) each time. The GI50 in the experiment on NCI/ADR-RES, with NCI-H522, with MDA-MB-435, in the experiment on NCI-H23, with HL-60 and in the experiment with NCI-H460 was > 100 µM (inactive) each time.

Regarding `CC1CCCc2c(C#N)c(N)nc(-c3ccc(Cl)cc3)c21` (stereo unspecified), the GI50 in the experiment with SNB-75 is 22.4 µM (inactive); in the experiment with MDA-N it was 31 µM (inactive); with MOLT-4 it was 7.69 µM (inactive); in the experiment on SN12C it was 20.3 µM (inactive); in the experiment on M14, 19.2 µM (inactive); with OVCAR-5 it was 15.6 µM (inactive). In addition, the GI50 with BT-549 was 17.9 µM (inactive); in the experiment on TK-10 it was 29.8 µM (inactive); with Malme-3M, 18.7 µM (inactive); with SF-539, 14.5 µM (inactive); in the experiment with NCI/ADR-RES, 20.6 µM (inactive); in the experiment with MDA-MB-435 it was 23.8 µM (inactive). The GI50 in the experiment on NCI-H23 is 16.8 µM (inactive); in the experiment with HL-60, 18.1 µM (inactive); in the experiment on T47D, 5.96 µM (inactive); with NCI-H460, 22.8 µM (inactive).

Consider `N#C/C(=C\Nc1ccccn1)C(=O)c1ccco1`, for which the GI50 with A549 was > 100 µM (inactive); with SNB-75 it was > 100 µM (inactive); in the experiment on MDA-N, > 100 µM (inactive); with MOLT-4, 39.6 µM (inactive); in the experiment with SN12C it was > 100 µM (inactive); in the experiment on M14, > 100 µM (inactive). The GI50 in the experiment on OVCAR-5, with HCC 2998, with OVCAR-4, with BT-549, in the experiment with TK-10 and in the experiment on Malme-3M was > 100 µM (inactive) each time. For the same molecule, the GI50 in the experiment with SF-539, in the experiment with NCI/ADR-RES, with NCI-H522, with MDA-MB-435, in the experiment on NCI-H23 and in the experiment with HL-60 was > 100 µM (inactive) throughout. For the same molecule, the GI50 with NCI-H460 is > 100 µM (inactive).

Take `CC(=O)CC(=O)N1CCSC1=S`: the GI50 with A549, in the experiment with SNB-75, in the experiment on MDA-N, in the experiment with MOLT-4, in the experiment with SN12C and in the experiment with M14 was > 10 µM (inactive) in each case. Further, the GI50 in the experiment with OVCAR-5, in the experiment with HCC 2998, in the experiment with BT-549, with TK-10, in the experiment with Malme-3M and with SF-539 was > 10 µM (inactive) each time. In addition, the GI50 in the experiment with MDA-MB-435 is > 10 µM (inactive); in the experiment on NCI-H23, > 10 µM (inactive); with HL-60, > 10 µM (inactive); with T47D it was 6.67 µM (inactive); in the experiment with NCI-H460, > 10 µM (inactive).

On to `c1ccc2c(NCCCCCCCCNc3c4ccccc4nc4ccccc34)c3ccccc3nc2c1`, for which the GI50 with A549 is 0.0948 µM (active); with SNB-75, 1.19 µM (inactive); in the experiment on MOLT-4, 0.0419 µM (active); in the experiment on SN12C, 0.356 µM (active); with M14, 0.975 µM (active); in the experiment with OVCAR-5, 0.23 µM (active). In addition, the GI50 with HCC 2998 is 0.0723 µM (active); in the experiment on OVCAR-4, 0.887 µM (active); with BT-549, 1.16 µM (inactive); in the experiment with TK-10 it was 1.38 µM (inactive); in the experiment on Malme-3M, 1.14 µM (inactive); in the experiment with SF-539 it was 0.233 µM (active). The GI50 in the experiment with NCI/ADR-RES was 4.15 µM (inactive); in the experiment on NCI-H522, < 0.0247 µM (active); in the experiment on MDA-MB-435, 1.04 µM (active); in the experiment on NCI-H23 it was 0.257 µM (active); with HL-60, 0.125 µM (active); with T47D it was 0.59 µM (active). The GI50 in the experiment on NCI-H460 was 0.0428 µM (active).

Regarding `CCC1=C(C=O)c2cc3[nH]c(cc4nc(c5c6[nH]c(cc1n2)c(C)c6C(=O)C5C(=O)OC)C(CCC(=O)OC)C4C)c(C)c3CC` (stereo unspecified), the GI50 with A549, with SNB-75, in the experiment with MDA-N, in the experiment with MOLT-4, in the experiment on SN12C and in the experiment with M14 was > 100 µM (inactive) throughout. Further, the GI50 in the experiment on OVCAR-5, in the experiment with HCC 2998, in the experiment on OVCAR-4, with BT-549, in the experiment on TK-10 and in the experiment on Malme-3M was > 100 µM (inactive) throughout. The GI50 in the experiment with SF-539, with NCI-H522, with MDA-MB-435, in the experiment on NCI-H23, in the experiment with HL-60 and in the experiment with T47D was > 100 µM (inactive) throughout. In addition, in the experiment on NCI-H460, the GI50 is > 100 µM (inactive).

As for `COC(=N)CCCl`, the GI50 was > 100 µM (inactive) in the experiment on A549; 83.2 µM (inactive) with SNB-75; > 100 µM (inactive) in the experiment on MDA-N; > 100 µM (inactive) in the experiment on MOLT-4; > 100 µM (inactive) in the experiment on SN12C; > 100 µM (inactive) in the experiment with M14. The GI50 in the experiment with OVCAR-5, with HCC 2998, in the experiment on OVCAR-4, in the experiment with BT-549, with TK-10 and with Malme-3M was > 100 µM (inactive) throughout. Further, the GI50 in the experiment with SF-539 was > 100 µM (inactive); in the experiment on NCI/ADR-RES, > 100 µM (inactive); in the experiment with NCI-H522, 99.1 µM (inactive); in the experiment with NCI-H23 it was > 100 µM (inactive); in the experiment with HL-60 it was > 100 µM (inactive); with NCI-H460, > 100 µM (inactive).

In the case of `CCn1c(-c2ccccc2)cs/c1=N\C(P(=O)(O)O)P(=O)(O)O`, the GI50 with A549, in the experiment on SNB-75, with MDA-N, in the experiment on MOLT-4, in the experiment with M14 and in the experiment on OVCAR-5 was > 100 µM (inactive) throughout. The GI50 with HCC 2998, with BT-549, in the experiment on TK-10, with Malme-3M, with SF-539 and in the experiment on NCI/ADR-RES was > 100 µM (inactive) throughout. Moreover, the GI50 with NCI-H522, in the experiment on MDA-MB-435, in the experiment with NCI-H23, with HL-60 and in the experiment with NCI-H460 was > 100 µM (inactive) throughout.

Take `CCOC(=O)C(NC(=O)NC(C(=O)OCC)C(=O)OCC)C(=O)OCC`: the GI50 in the experiment on A549, in the experiment with MDA-N, in the experiment with MOLT-4, in the experiment on SN12C, in the experiment on M14 and in the experiment with OVCAR-5 was > 100 µM (inactive) throughout. For the same molecule, the GI50 in the experiment on HCC 2998, with BT-549, in the experiment on TK-10, with Malme-3M, with SF-539 and in the experiment with NCI/ADR-RES was > 100 µM (inactive) each time. The GI50 with NCI-H522 is > 100 µM (inactive); in the experiment on MDA-MB-435, 98.2 µM (inactive); with NCI-H23, > 100 µM (inactive); in the experiment with NCI-H460, > 100 µM (inactive).

As to `Cc1cccc(O)c1-c1nnc(CCCCCCCCc2nnc(-c3c(C)cccc3O)n2N)n1N`, the GI50 in the experiment with A549 was > 46.5 µM (inactive); with SNB-75, 25 µM (inactive); in the experiment on MDA-N, > 64.6 µM (inactive); in the experiment with MOLT-4, 8.41 µM (inactive); with SN12C, > 100 µM (inactive); in the experiment on M14, > 39.7 µM (inactive). Also, the GI50 with OVCAR-5 was > 100 µM (inactive); in the experiment on HCC 2998 it was > 100 µM (inactive); in the experiment on OVCAR-4, 18.7 µM (inactive); in the experiment with BT-549, 15 µM (inactive); with TK-10, > 41.4 µM (inactive); in the experiment on Malme-3M, > 85.3 µM (inactive). In addition, the GI50 is > 96.4 µM (inactive) with SF-539; 1.07 µM (active) in the experiment on NCI-H522; > 69.5 µM (inactive) with MDA-MB-435; 48.6 µM (inactive) with NCI-H23; 0.139 µM (active) in the experiment with HL-60; > 100 µM (inactive) with T47D. In the experiment with NCI-H460, the GI50 is 24.3 µM (inactive).

For `Clc1nss/c1=N/c1nonc1-c1ccccc1`, the GI50 was 68.9 µM (inactive) in the experiment with A549; 23.2 µM (inactive) in the experiment on SNB-75; 20.1 µM (inactive) in the experiment with MDA-N; 25.1 µM (inactive) with MOLT-4; 18 µM (inactive) in the experiment with SN12C; 16 µM (inactive) in the experiment on M14. Besides, the GI50 in the experiment on OVCAR-5 is 19.5 µM (inactive); in the experiment on HCC 2998, > 100 µM (inactive); with OVCAR-4, 49.9 µM (inactive); in the experiment on BT-549, 29.6 µM (inactive); with Malme-3M, 28 µM (inactive); with SF-539, 22.7 µM (inactive). For the same molecule, the GI50 in the experiment with NCI/ADR-RES is 24 µM (inactive); with NCI-H522, 18.3 µM (inactive); in the experiment on MDA-MB-435 it was 38.6 µM (inactive); in the experiment with NCI-H23, 26.1 µM (inactive); in the experiment with HL-60, 3.62 µM (inactive); in the experiment with NCI-H460 it was > 100 µM (inactive).

(Values after ChEMBL document CHEMBL1201862, “PubChem BioAssay data set” (2004).)
